Source: PubChem BioAssay (NCI)
Values joined by “and” are separate entries in the source; they are usually repeats but may differ in a detail not shown here. Equal entries are not always repeated.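 The compound was tested at five concentrations on cells cultured in 96-well plates, with a 48-hour exposure period. The concentration for 50% growth inhibition is given as GI50. TGI marks complete inhibition of growth.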

Legend:
Test in all cases: NCI anticancer screen, dose series, 48 h
DU-145 prostate = system: DU-145 prostate
OVCAR-3 ovarian = system: OVCAR-3 ovarian
UO-31 renal = system: UO-31 renal
HS 578T breast = system: HS 578T breast
EKVX NSCLC = system: EKVX NSCLC
SW-620 colon = system: SW-620 colon
NCI-H460 lung = system: NCI-H460 lung
NCI-H226 lung = system: NCI-H226 lung
OVCAR-5 ovarian = system: OVCAR-5 ovarian
CCRF-CEM leukemia = system: CCRF-CEM leukemia

Structure (SMILES)	GI50 (DU-145 prostate)	TGI (DU-145 prostate)	GI50 (OVCAR-3 ovarian)	TGI (OVCAR-3 ovarian)	GI50 (UO-31 renal)	TGI (UO-31 renal)	GI50 (HS 578T breast)	TGI (HS 578T breast)	GI50 (EKVX NSCLC)	TGI (EKVX NSCLC)	GI50 (SW-620 colon)	TGI (SW-620 colon)	GI50 (NCI-H460 lung)	TGI (NCI-H460 lung)	GI50 (NCI-H226 lung)	TGI (NCI-H226 lung)	GI50 (OVCAR-5 ovarian)	TGI (OVCAR-5 ovarian)	GI50 (CCRF-CEM leukemia)	TGI (CCRF-CEM leukemia)
Cc1cc(C2=NNC(=O)Cc3cc4c(cc32)OCCO4)cc(C)c1N	3.84 µM	> 100 µM	0.892 µM	5.6 µM	3.83 µM	> 100 µM	3.05 µM	> 100 µM	29.7 µM	> 100 µM	0.965 µM	> 100 µM	2.64 µM	> 100 µM	8.9 µM	> 100 µM	8.02 µM	> 100 µM	–	–
COc1ccc2nc3cc(Cl)ccc3c(N3CCN(c4ccnc(N5CCOCC5)n4)CC3)c2c1	17.9 µM	> 100 µM	4.14 µM	57.3 µM	> 100 µM	> 100 µM	12.3 µM	> 100 µM	–	–	4.71 µM	> 100 µM	> 100 µM	> 100 µM	> 100 µM	> 100 µM	7.58 µM	> 100 µM	2.49 µM	> 100 µM
OCC1OC(OCC(O)C(O)C(O)C(/C=N/Nc2ccccc2)=N/Nc2ccccc2)C(O)C(O)C1O (stereo not given)	–	> 100 µM	–	> 100 µM	–	> 100 µM	–	> 100 µM	–	> 100 µM	–	> 100 µM	–	> 100 µM	–	–	–	> 100 µM	–	> 100 µM
CC(=O)O[C@]1(C)OC(=O)[C@@H](C)N1[N+](=O)[O-]	–	–	–	> 100 µM	–	> 100 µM	–	–	–	> 100 µM	–	> 100 µM	–	> 100 µM	–	> 100 µM	–	> 100 µM	–	> 100 µM
CC/C(=C(/CC)c1ccc([O-])cc1)c1ccc([O-])cc1.CC/C(=C(\CC)c1ccc([O-])cc1)c1ccc([O-])cc1.O=C([CH-]C(=O)c1ccccc1)c1ccccc1.O=C([CH-]C(=O)c1ccccc1)c1ccccc1.O=C([CH-]C(=O)c1ccccc1)c1ccccc1.O=C([CH-]C(=O)c1ccccc1)c1ccccc1.[Ti+4].[Ti+4]	–	–	24.9 µM	> 100 µM	35 µM	72.2 µM	–	–	45.5 µM	> 100 µM	21.4 µM	51.6 µM	25.2 µM	> 100 µM	28.1 µM	61.2 µM	45.8 µM	> 100 µM	21 µM	93.8 µM
O=[N+]([O-])c1ccc2c(N3CCC(CCCC4CCN(c5ncnc6cc([N+](=O)[O-])ccc56)CC4)CC3)ncnc2c1	> 96.2 µM	> 100 µM	21.6 µM	> 100 µM	27.3 µM	> 100 µM	> 46.3 µM	> 100 µM	–	–	> 48 µM	> 100 µM	23.9 µM	> 100 µM	9.47 µM	> 75.3 µM	> 100 µM	> 100 µM	44.7 µM	> 100 µM
CCOC(=O)c1c2c(n(Cc3ccccc3)c1C)-c1ccccc1C(=O)C2=O	4.21 µM	12.4 µM	12.2 µM	29.3 µM	16.3 µM	31.6 µM	2.93 µM	12.4 µM	11.9 µM	29.2 µM	11.7 µM	28.4 µM	6.31 µM	21.5 µM	–	–	15.5 µM	40.4 µM	3.36 µM	13.5 µM
C/C(=N\N=C(\[Se])N1CCN(c2ccccn2)CC1)c1ccccn1	0.586 µM	20.1 µM	–	–	0.138 µM	> 40 µM	–	68.2 µM	0.0937 µM and 0.559 µM	9.7 µM	–	12.4 µM	–	16 µM	–	14.3 µM	0.00643 µM	21.8 µM	–	–
O=C1OCCC1C(O)C1c2ccccc2-c2ccccc21 (stereo not given)	–	–	–	> 100 µM	–	> 100 µM	–	–	–	> 100 µM	–	> 100 µM	–	> 100 µM	–	> 100 µM	–	> 100 µM	–	> 100 µM
O=C(CCCN1CCOCC1)Nc1ccc(Cn2nnc3c2C(=O)c2nnn(Cc4ccc(NC(=O)CCCN5CCOCC5)cc4)c2C3=O)cc1	7.3 µM	> 100 µM	0.348 µM	1.54 µM	> 100 µM	> 100 µM	2.79 µM	7.76 µM	–	–	2.85 µM	> 100 µM	2.07 µM	> 100 µM	> 100 µM	> 100 µM	> 100 µM	> 100 µM	1.81 µM	6.32 µM
C[C@]12CCc3nonc3C1CC[C@@H]1C2CC[C@]2(C)NC(=O)CCC12 (stereo not given in full)	–	–	–	> 100 µM	–	> 100 µM	–	–	–	> 100 µM	–	> 100 µM	–	> 100 µM	–	> 100 µM	–	> 100 µM	–	> 100 µM
C1C[S][Ge]2([S]CCO1)[S]CCOCC[S]2	–	–	–	–	> 100 µM	> 100 µM	–	–	–	–	–	–	–	–	> 100 µM	> 100 µM	–	–	> 100 µM	> 100 µM
Cc1cc(=O)[nH]o1	–	–	–	> 100 µM	–	> 100 µM	–	> 100 µM	–	> 100 µM	–	> 100 µM	–	> 100 µM	–	> 100 µM	–	> 100 µM	–	–
COc1ccc(C(=O)C(C(=O)C(=O)Nc2ccc(Cl)c(Cl)c2)c2ccc(OC)cc2)cc1 (stereo not given)	–	–	–	> 100 µM	–	> 100 µM	–	–	–	> 100 µM	–	> 100 µM	–	> 100 µM	–	> 100 µM	–	> 100 µM	–	–
COc1c(NC(C)=O)cc(C)cc1NC(C)=O	–	–	–	> 100 µM	–	–	–	–	–	> 100 µM	–	> 100 µM	–	> 100 µM	–	–	–	–	–	> 100 µM
Cc1c(C(=O)C/C(=N/NC(=O)C[n+]2ccccc2)C(=O)Nc2ccccc2)[n+](=O)c2ccccc2n1O	–	–	–	> 100 µM	–	> 100 µM	–	–	–	> 100 µM	–	> 100 µM	–	> 100 µM	–	> 100 µM	–	> 100 µM	–	> 100 µM
CCOc1cc2c(cc1O)/C(=N\O)C[C@@H]1[C@@H]2CC[C@]2(C)[C@@H](O)CC[C@@H]12	0.0232 µM	> 100 µM	0.0114 µM and 0.0299 µM	–	0.984 µM	46.1 µM	0.0271 µM	> 82.9 µM	0.0582 µM	> 100 µM	0.0234 µM and 0.0382 µM	> 100 µM	–	1.47 µM	0.258 µM	> 100 µM	–	> 100 µM	–	–
